We go through 26 compounds from patent publication US12338256B2, “Aza-tetracyclic oxazepine compounds and uses thereof” (Genentech, Inc., priority 2022, dated 2025).

The term IC50 denotes the midpoint of a concentration-inhibition curve.

Test [1] relates to H1975 (KRAS wild type human lung adenocarcinoma cell line). Description: KRAS 3D-Cell Proliferation Assay, H1975 (Example 503). The conditions noted are these: H1975 3D culture, 7 days, CellTiter-Glo 3D, read-out: Prolif H1975 3D ATP IC50. The class given is cell-based. As for the experimental part: (§1) Example 503: KRAS 3D-Cell Proliferation Assays. Cellular potencies of compounds are assessed by evaluating inhibition of proliferation in 3D cultures of homozygous mutant KRAS G12D human pancreatic cell lines (AsPC-1 and HPAC) as compared to a KRAS wild type human lung adenocarcinoma cell line (PC-9 and/or H1975). Cells are seeded into 384-well black round-bottom, ultra-low attachment assay plates in 50 uL cell growth medium (RPMI-1640 with 10% fetal bovine serum and 2 mM L-glutamine). After overnight incubation at 37° C. and 5% CO2, compounds solubilized in DMSO are added as dilution series to the wells in a total volume of 150 nL (0.3% DMSO final). The cells are incubated for 7 days at 37° C. and 5% CO2. Cell proliferation is quantitated by addition of 40 uL/well of CellTiter-GloÒ 3D (Promega), and the well contents are mixed 20× at high speed using liquid handling automation workstation (Bravo with 384-well head) and centrifuged at 1500 rpm for 2 minutes to eliminate bubbles. This reagent in combination with mechanical disruption releases the cellular ATP to promote activity in a luciferase-based enzyme/substrate chemiluminescent detection system. After a 30-minute incubation under ambient conditions with shaking and an additional 10 minutes without shaking, the luminescence is read on a plate reader (e.g., EnVision [PerkinElmer]). The results are normalized to percent inhibition based on the following control samples: DMSO (0% inhibition) and 1 μM staurosporine (100% inhibition). The normalized luminescence results are plotted against compound concentration, and the data are fit to a 4-parameter Hill equation to determine the IC50 values.

Test [2] deals with HPAC (homozygous mutant KRAS G12D human pancreatic cell line). Description: KRAS 3D-Cell Proliferation Assay, HPAC (Example 503). The class given is cell-based. The conditions noted are these: HPAC 3D culture, 7 days, CellTiter-Glo 3D, read-out: Prolif HPAC 3D ATP IC50. As for the experimental part:
as §1
(Cellular ATP, detected with luciferase, serves as a proxy for viable cell number.)

Like-named read-outs stand apart in the source and are kept apart here.

For `Cc1c(F)c(N)cc(-c2nc3c4c(nc(OCC5CC6COCCN65)nc4c2F)N2C[C@H]4CC[C@H](N4)[C@H]2[C@H](C)O3)c1C(F)(F)F` (mixture of isomers) [159 (mixture), 5-((5S,5aS,6S,9R)-12-((4-Oxa-1-azabicyclo[4.2.0]octan-8-yl)methoxy)-1-fluoro-5-methyl-5a,6,7,8,9,10-hexahydro-5H-4-oxa-3,10a,11,13,14-pentaaza-6,9-methanonaphtho[1,8-ab]heptalen-2-yl)-2-fluoro-3-methyl-4-(trifluoromethyl)aniline], the IC50 was found to be 3740 nM in test [1] (Homo sapiens, NCI-H1975, 168 h) and 17.9 nM in test [2] (Homo sapiens, HPAC, 168 h).
On the same counts, the results for `Cc1c(F)c(N)cc(-c2nc3c4c(nc(OCC5CCC6CN(C)C(=O)CN56)nc4c2F)N2C[C@H]4CC[C@H](N4)[C@H]2[C@H](C)O3)c1C(F)(F)F` (mixture of isomers) [Compound 124, 6-((((5S,5aS,6S,9R)-2-(5-Amino-4-fluoro-3-methyl-2-(trifluoromethyl)phenyl)-1-fluoro-5-methyl-5a,6,7,8,9,10-hexahydro-5H-4-oxa-3,10a,11,13,14-pentaaza-6,9-methanonaphtho[1,8-ab]heptalen-12-yl)oxy)methyl)-2-methylhexahydropyrrolo[1,2-a]pyrazin-3(4H)-one] are 12200 nM and 293 nM.
On the same counts, the results for `Cc1c(F)c(N)cc(-c2nc3c4c(nc(OCC56CCN5CC(F)(F)C6)nc4c2F)N2C[C@H]4CC[C@H](N4)[C@H]2[C@H](C(F)(F)F)O3)c1C(F)(F)F` (mixture of isomers) [Compound 244, 5-((5R,5aS,6S,9R)-12-((3,3-Difluoro-1-azabicyclo[3.2.0]heptan-5-yl)methoxy)-1-fluoro-5-(trifluoromethyl)-5a,6,7,8,9,10-hexahydro-5H-4-oxa-3,10a,11,13,14-pentaaza-6,9-methanonaphtho[1,8-ab]heptalene-2-yl)-2-fluoro-3-methyl-4-(trifluoromethyl)aniline] are 258 nM and 6.14 nM.
As for `Cc1nc(N)cc(-c2nc3c4c(nc(OCC5(CN6CC7CC(F)(F)C7C6)CC5)nc4c2F)N2C[C@H]4CC[C@H](N4)[C@H]2[C@H](C)O3)c1C(F)(F)F` (mixture of isomers) [Compound 264, 4-((5S,5aS,6S,9R)-12-((1-((6,6-difluoro-3-azabicyclo[3.2.0]heptan-3-yl)methyl)cyclopropyl)methoxy)-1-fluoro-5-methyl-5a,6,7,8,9,10-hexahydro-5H-4-oxa-3,10a,11,13,14-pentaaza-6,9-methanonaphtho[1,8-ab]heptalene-2-yl)-6-methyl-5-(trifluoromethyl)pyridin-2-amine], the half-maximal inhibitory concentration (IC50) in test [1] (Homo sapiens, NCI-H1975, 168 h) came out at 11000 nM; in test [2] (Homo sapiens, HPAC, 168 h), 5.56 nM.
The corresponding values for `Cc1c(F)c(N)cc(-c2nc3c4c(nc(OCC5CCC6CC(F)(F)CCN56)nc4c2F)N2CC4CCC(N4)C2C(C)O3)c1C(F)(F)F` (single isomer, unassigned) [119 (isomer 1)] are 3150 nM and 76.7 nM.
The corresponding values for `Cc1c(F)c(N)cc(-c2nc3c4c(nc(OC[C@@H]5CCC6CC(F)(F)CCN65)nc4c2F)N2C[C@H]4CC[C@H](N4)[C@H]2[C@H](C)O3)c1C(F)(F)F` (single isomer, unassigned) [119 (isomer 2)] are 1700 nM and 7.95 nM.
`Cc1c(F)c(N)cc(-c2nc3c4c(nc(OCC5COCC6CCCN65)nc4c2F)N2CC4CCC(N4)C2C(C)O3)c1C(F)(F)F` (single isomer, unassigned) [121 (isomer 1)]: the half-maximal inhibitory concentration (IC50) in test [2] (Homo sapiens, HPAC, 168 h) came out at 12.5 nM.
Consider `Cc1c(F)c(N)cc(-c2nc3c4c(nc(OC[C@@]5(CCF)CCCN5C)nc4c2F)N2C[C@H]4CC[C@H](N4)[C@H]2[C@H](C)O3)c1C(F)(F)F` (single isomer, unassigned) [127 (isomer 1)], for which the half-maximal inhibitory concentration (IC50) is 6080 nM in test [1] (Homo sapiens, NCI-H1975, 168 h) and 50.1 nM in test [2] (Homo sapiens, HPAC, 168 h).
On the same counts, the results for `Cc1c(F)c(N)cc(-c2nc3c4c(nc(OCC5(CCF)CCCN5C)nc4c2F)N2CC4CCC(N4)C2C(C)O3)c1C(F)(F)F` (single isomer, unassigned) [127 (isomer 2)] are 7970 nM and 57.5 nM.
Regarding `Cc1c(F)c(N)cc(-c2nc3c4c(nc(OCC5CCC6CN(C)C(=O)CN56)nc4c2F)N2CC4CCC(N4)C2C(C)O3)c1C(F)(F)F` (single isomer, unassigned) [131 (isomer 4)], in test [1] (Homo sapiens, NCI-H1975, 168 h), the half-maximal inhibitory concentration (IC50) turned out to be 6810 nM.
As for `Cc1c(F)c(N)cc(-c2nc3c4c(nc(OC[C@@H]5CC[C@@H]6C[C@@H](C(=O)N(C)C)CCN65)nc4c2F)N2C[C@H]4CC[C@H](N4)[C@H]2[C@H](C)O3)c1C(F)(F)F` (single isomer, unassigned) [133 (isomer 1)], the 50% inhibitory concentration (IC50) in test [1] (Homo sapiens, NCI-H1975, 168 h) was found to be 2630 nM; in test [2] (Homo sapiens, HPAC, 168 h) it was 26.7 nM.
On the same counts, the results for `Cc1c(F)c(N)cc(-c2nc3c4c(nc(OC[C@@H]5CC[C@@H]6CC(C(=O)N(C)C)CCN65)nc4c2F)N2C[C@H]4CC[C@H](N4)[C@H]2[C@H](C)O3)c1C(F)(F)F` (single isomer, unassigned) [133 (isomer 3)] are 659 nM and 36.3 nM.
For `Cc1c(F)c(N)cc(-c2nc3c4c(nc(OCC5CCC6CC(C(=O)N(C)C)CCN56)nc4c2F)N2CC4CCC(N4)C2C(C)O3)c1C(F)(F)F` (single isomer, unassigned) [133 (isomer 4)], the concentration for half-maximal inhibition (IC50) in test [1] (Homo sapiens, NCI-H1975, 168 h) came out at 2080 nM; in test [2] (Homo sapiens, HPAC, 168 h), 14.1 nM.
On the same counts, the results for `Cc1c(F)c(N)cc(-c2nc3c4c(nc(OC[C@]56COC[C@H]5CCN6C)nc4c2F)N2C[C@H]4CC[C@H](N4)[C@H]2[C@H](C)O3)c1C(F)(F)F` (single isomer, unassigned) [134 (isomer 1)] are 2550 nM and 8.59 nM.
On the same counts, the results for `Cc1c(F)c(N)cc(-c2nc3c4c(nc(OCC56COCC5CCN6C)nc4c2F)N2CC4CCC(N4)C2C(C)O3)c1C(F)(F)F` (single isomer, unassigned) [134 (isomer 2)] are 1940 nM and 7.45 nM.
Consider `Cc1c(F)c(N)cc(-c2nc3c4c(nc(OC[C@@]56CCCN5CCN(C)C6=O)nc4c2F)N2C[C@H]4CC[C@H](N4)[C@H]2[C@H](C)O3)c1C(F)(F)F` (single isomer, unassigned) [137 (isomer 1)], for which the IC50 in test [1] (Homo sapiens, NCI-H1975, 168 h) stood at 20000 nM; in test [2] (Homo sapiens, HPAC, 168 h), 127 nM.
As to `Cc1c(F)c(N)cc(-c2nc3c4c(nc(OCC56CCCN5CCN(C)C6=O)nc4c2F)N2C[C@H]4CC[C@H](N4)[C@H]2[C@H](C)O3)c1C(F)(F)F` (single isomer, unassigned) [137 (isomer 2)], the IC50 in test [1] was 20000 nM.
In the case of `Cc1c(F)c(N)cc(-c2nc3c4c(nc(OC[C@]56CCCN5C[C@H](F)[C@@H]6F)nc4c2F)N2C[C@H]4CC[C@H](N4)[C@H]2[C@H](C)O3)c1C(F)(F)F` (single isomer, unassigned) [143 (isomer 1)], the 50% inhibitory concentration (IC50) in test [1] (Homo sapiens, NCI-H1975, 168 h) was determined as 972 nM; in test [2] (Homo sapiens, HPAC, 168 h), 4.72 nM.
Take `Cc1c(F)c(N)cc(-c2nc3c4c(nc(OCC56CCCN5CC(F)C6F)nc4c2F)N2CC4CCC(N4)C2C(C)O3)c1C(F)(F)F` (single isomer, unassigned) [143 (isomer 3)]: the IC50 in test [2] (Homo sapiens, HPAC, 168 h) came to 4.77 nM.
For the compound `Cc1c(F)c(N)cc(-c2nc3c4c(nc(OC[C@@]5(CC(F)F)CCCN5C)nc4c2F)N2C[C@H]4CC[C@H](N4)[C@H]2[C@H](C)O3)c1C(F)(F)F` (single isomer, unassigned) [150 (isomer 1)], the concentration for half-maximal inhibition (IC50) came out at 3770 nM in test [1] (Homo sapiens, NCI-H1975, 168 h) and 13.7 nM in test [2] (Homo sapiens, HPAC, 168 h).
On the same counts, the results for `Cc1c(F)c(N)cc(-c2nc3c4c(nc(OCC5(CC(F)F)CCCN5C)nc4c2F)N2CC4CCC(N4)C2C(C)O3)c1C(F)(F)F` (single isomer, unassigned) [150 (isomer 2)] are 2850 nM and 23.9 nM.
`Cc1c(F)c(N)cc(-c2nc3c4c(nc(OCC5CC6COCCN65)nc4c2F)N2C[C@H]4CC[C@H](N4)[C@H]2[C@H](C)O3)c1C(F)(F)F` (single isomer, unassigned) [159 (diast. 1)]: the half-inhibitory concentration (IC50) in test [2] (Homo sapiens, HPAC, 168 h) was 36.9 nM.
As to `Cc1c(F)c(N)cc(-c2nc3c4c(nc(OC[C@]5(CN6C[C@H]7C[C@@H]6CO7)CC5(F)F)nc4c2F)N2C[C@H]4CC[C@H](N4)[C@H]2[C@H](C)O3)c1C(F)(F)F` (single isomer, unassigned) [166 a], the IC50 in test [2] was determined as 1.44 nM.
On to `C[C@@H]1Oc2nc(-c3cc(N)c(F)cc3[C@H](C)C(F)F)c(F)c3nc(OC[C@@]45CCCN4C[C@H](F)C5)nc(c23)N2C[C@H]3CC[C@H](N3)[C@@H]12` (single isomer, unassigned) [181 (isomer 1)], for which the IC50 in test [1] (Homo sapiens, NCI-H1975, 168 h) was found to be 12300 nM.
Regarding `Cc1c(F)c(N)cc(-c2nc3c4c(nc(OC[C@@]56CCCN5C[C@H](F)C6)nc4c2F)N2C[C@H]4CC[C@H](N4)C2C(C(F)F)O3)c1C(F)(F)F` (single isomer, unassigned) [238 (isomer 2)], the IC50 in test [2] was 2000 nM.
As for `Cc1nc(N)cc(-c2nc3c4c(nc(OCC5N(C)CC56CC6(F)F)nc4c2F)N2CC4CCC(N4)C2C(C(F)(F)F)O3)c1C(F)(F)F` (single isomer, unassigned) [262 (isomer 2)], the IC50 in test [2] (Homo sapiens, HPAC, 168 h) came out at 123 nM.
